Measured values: PMC6692300, “Targeting HIBCH to reprogram valine metabolism for the treatment of colorectal cancer” (Cell Death & Disease, 2019)

Biological target: T1, GFP-HIBCH (3-hydroxyisobutyryl-CoA hydrolase) (Homo sapiens, UniProt Q6NVY1)
T1 construct: GFP fusion of HIBCH
T1 sequence (Q6NVY1 1-386): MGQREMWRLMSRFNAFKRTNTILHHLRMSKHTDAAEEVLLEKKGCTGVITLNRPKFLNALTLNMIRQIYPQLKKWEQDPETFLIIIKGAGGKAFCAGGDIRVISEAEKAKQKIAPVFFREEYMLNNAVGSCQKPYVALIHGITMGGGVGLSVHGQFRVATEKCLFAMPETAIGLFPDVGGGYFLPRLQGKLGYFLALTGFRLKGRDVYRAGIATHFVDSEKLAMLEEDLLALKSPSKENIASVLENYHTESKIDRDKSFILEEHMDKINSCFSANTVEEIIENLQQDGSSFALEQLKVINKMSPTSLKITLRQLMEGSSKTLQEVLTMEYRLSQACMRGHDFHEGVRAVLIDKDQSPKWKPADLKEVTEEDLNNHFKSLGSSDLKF
Test: microscale thermophoresis
Type: binding
Conditions: GFP-tagged HIBCH; fit of three independent measurements

- Kd: 35.9 µM
SMILES: CCCCCCCCCCCCOC(=O)[C@@H](C)[C@@]1(O)[C@@H](O[C@@H]2OC[C@H](O)[C@H](O[C@@H]3OC[C@@H](O)[C@H](O)[C@H]3OC(=O)c3ccc(OC)cc3)[C@H]2OC(C)=O)C[C@H]2[C@@H]3CC=C4C[C@@H](O)CC[C@]4(C)[C@H]3CC[C@@]21C [SBF-1]
